Reference: US11014934B2, “Antiseptic drug” (AO “TATKHIMFARMPREPARATY”, priority 2017, dated 2021)

Experiments:
Assay type in all cases: cell-based
[1] = system: P.aeruginosa in the biofilm; assay: Antibacterial activity against cells immersed in a biofilm matrix (CFU, drop plate); conditions: 24 hours
Description: To determine the effectiveness of the antibiotic against bacteria in […], bacteria were grown in Basal medium for 3 days at a temperature of 37° C. without swinging to obtain a dense biofilm [A. R Kayumov, Khakimullina E., Sharafutdinov I, Trizna E., Latypova L., Lien Thi, Margulis A., Bogachev M, Kurbangalieva A. Inhibition of biofilm formation in Bacillus subtilis by new halogenated furanoses. J. Antibiotics.—2014.—V. 68.—No 5.—P. 297-301.]. Then the biofilm was washed with a sterile 0.9% NaCl solution and fresh sterile medium was poured. Antiseptics were added to concentrations (1-16)×MBC (minimum bactericidal concentration) and incubated for 24 hours. Then the culture fluid was removed from the wells, washed once with 0.9% NaCl solution to remove non-adherent cells, and cell viability in biofilms was evaluated by counting CFU by Drop plate analysis [B. Herigstad, M Hamilton, J. Heersink How to optimize the drop plate method for enumerating bacteria. J Microbiol Methods.—2001.—V. 44.—P. 121-129]. To do this, the biofilm was mechanically removed from the surface and homogenized in 0.9% NaCl by pipetting and ultrasonic treatment. Then, serial 10-fold dilutions of the bacterial suspension in 0.9% NaCl were prepared, and 5 μI of each suspension were transferred to plates with dense nutrient medium. CFU was counted from drops containing 5-10 colonies.
The results of the study of antimicrobial activity against cells of the studied strains immersed in the biofilm matrix, in comparison with miramistin and benzalkonium chloride, are presented in FIGS. 1 and 2.

[2] = system: Escherichia coli CDC F-50; assay: Disinfectant activity in suspension test
Description: (§1) To prepare a bacterial suspension of the culture, microorganisms grown in dense nutrient medium for (18-24) hours were washed off with a sterile isotonic sodium chloride solution. The bacterial suspension of each microorganism was brought to a turbidity corresponding to a concentration of 1×10^9 cells/ml, which corresponds to 3 units of McFarland. For experiments with protein loading, a solution of bovine serum albumin (BSA) was added to the bacterial suspension to a final concentration of 0.2%.
(§2) Solutions of compound I, miramistin, and benzalkonium chloride were poured at a working concentration (0.1%, 0.2%) into a 24-well plate of 0.9 ml per well: 0.1 ml of microbial suspension was added to wells with disinfectant solutions and mixed by shaking for several seconds.
(§3) At the end of 1, 5, and 15 minutes of exposure, 0.5 ml of a universal neutralizer was added and mixed by shaking to deactivate the drugs and stop their antimicrobial activity. The neutralizer consisted of tween-80 (Sigma-Aldrich)—3.0 ml, saponin (DIAEM)—3.0 g, histidine—0.1 g, cysteine—0.1 g in 100 ml of phosphate-buffered solution.
(§4) The liquid was inoculated on a dense nutrient medium (Müller-Hinton agar) in 0.1 ml of the mixture, cultivation was carried out (24-48) hours at 37° C. Müller-Hinton broth was prepared from dry media (Mueller Hinton broth, Acumedia, Baltimore), cultivation was carried out on agarized Müller-Hinton broth, which included an additional 2% of agar. The media were autoclaved at 121° C. for 15 minutes.
(§5) After the time required for the cultivation of microorganisms, the results were counted according to the number of colonies grown on the Petri dish. In the absence of growth, the time for culturing microorganisms was increased by a factor of 2 (for example, when the cultivation time was 24 hours, it was left in the thermostat for up to 2 days). The experiment was carried out three times under the same conditions.
(§6) The criterion of efficacy of drugs in suspension is the death of 100% test microorganisms, with a duration of action not more than 30 minutes.

[3] = system: Staphylococcus aureus ATCC 209p; assay: Disinfectant activity in suspension test
Description: as §1, §2, §3, §4, §5, §6

[4] = 0.1% solution, exposure 1 min, +BSA
[5] = 0.1% solution, exposure 1 min, −BSA
[6] = 0.1% solution, exposure 5 min, +BSA
[7] = 0.1% solution, exposure 5 min, −BSA
[8] = 0.1% solution, exposure 15 min, +BSA
[9] = 0.1% solution, exposure 15 min, −BSA
[10] = 0.2% solution, exposure 1 min, +BSA
[11] = 0.2% solution, exposure 1 min, −BSA
[12] = 0.2% solution, exposure 5 min, +BSA
[13] = 0.2% solution, exposure 5 min, −BSA
[14] = 0.2% solution, exposure 15 min, +BSA
[15] = 0.2% solution, exposure 15 min, −BSA

Row | Compound | excess of MBC giving a decrease in the number of CFU by 3 orders of magnitude [1] | Inhibition rate (M ± SD) of Escherichia coli CDC F-50 growth [2, 4] | Inhibition rate (M ± SD) of Escherichia coli CDC F-50 growth [2, 5] | Inhibition rate (M ± SD) of Escherichia coli CDC F-50 growth [2, 6] | Inhibition rate (M ± SD) of Escherichia coli CDC F-50 growth [2, 7] | Inhibition rate (M ± SD) of Escherichia coli CDC F-50 growth [2, 8] | Inhibition rate (M ± SD) of Escherichia coli CDC F-50 growth [2, 9] | Inhibition rate (M ± SD) of Escherichia coli CDC F-50 growth [2, 10] | Inhibition rate (M ± SD) of Escherichia coli CDC F-50 growth [2, 11] | Inhibition rate (M ± SD) of Escherichia coli CDC F-50 growth [2, 12] | Inhibition rate (M ± SD) of Escherichia coli CDC F-50 growth [2, 13] | Inhibition rate (M ± SD) of Escherichia coli CDC F-50 growth [2, 14] | Inhibition rate (M ± SD) of Escherichia coli CDC F-50 growth [2, 15] | Inhibition rate (M ± SD) Staphylococcus aureus ATCC 209p [3, 4] | Inhibition rate (M ± SD) Staphylococcus aureus ATCC 209p [3, 5] | Inhibition rate (M ± SD) Staphylococcus aureus ATCC 209p [3, 6] | Inhibition rate (M ± SD) Staphylococcus aureus ATCC 209p [3, 7] | Inhibition rate (M ± SD) Staphylococcus aureus ATCC 209p [3, 8] | Inhibition rate (M ± SD) Staphylococcus aureus ATCC 209p [3, 9] | Inhibition rate (M ± SD) Staphylococcus aureus ATCC 209p [3, 10] | also measured
1 | alkyldimethyl(phenylmethyl) ammonium chloride [Benzalconium chloride] | 16 times | 99.99 ± 0.005% | 99.99% | 99.99 ± 0.005% | 99.99 ± 0.005% | 100% | 100% | 99.99 ± 0.005% | 99.99 ± 0.005% | 100% | 99.99 ± 0.005% | 100% | 100% | 99.99% | 99.99% | 99.99% | 99.99% | 99.99 ± 0.005% | 99.99 ± 0.005% | 100% | Inhibition rate (M ± SD) Staphylococcus aureus ATCC 209p [3, 11]: 100%; Inhibition rate (M ± SD) Staphylococcus aureus ATCC 209p [3, 12]: 100%; Inhibition rate (M ± SD) Staphylococcus aureus ATCC 209p [3, 13]: 100%; Inhibition rate (M ± SD) Staphylococcus aureus ATCC 209p [3, 14]: 100%; Inhibition rate (M ± SD) Staphylococcus aureus ATCC 209p [3, 15]: 100%
2 | CCCCCCCCCCCC[N+](C)(C)Cc1cnc(C[N+](C)(C)CCCCCCCCCCCC)c2c1COC(CC)O2 (stereo not drawn) [Compound I, 5,8-(Bis(methylene (N, N-dimethyl-N-dodecylammonium))-2-ethyl-4H-[1,3]dioxino [4,5-c]pyridiniumdichloride] | 4-8 times | 99.99 ± 0.005% | 99.99% | 99.99 ± 0.005% | 99.99 ± 0.005% | 100% | 100% | 99.99 ± 0.005% | 99.99% | 99.99% | 99.99% | 100% | 100% | 99.99% | 99.99% | 99.99% | 99.99% | 99.99 ± 0.005% | 99.99 ± 0.005% | 99.99 ± 0.005% | death of Staphylococcus aureus ATCC 209p ([3]; 0.1% solution): 99.99%; Inhibition rate (M ± SD) Staphylococcus aureus ATCC 209p [3, 11]: 100%; Inhibition rate (M ± SD) Staphylococcus aureus ATCC 209p [3, 12]: 99.99 ± 0.005%; Inhibition rate (M ± SD) Staphylococcus aureus ATCC 209p [3, 13]: 100%; Inhibition rate (M ± SD) Staphylococcus aureus ATCC 209p [3, 14]: 100%; Inhibition rate (M ± SD) Staphylococcus aureus ATCC 209p [3, 15]: 100%
